Laboratory results: patent US6319952A, “Compositions and methods for reversibly increasing permeability of biomembranes” (D-Pharm Ltd., priority 1997, dated 2001)
“Also recorded” adds a separate entry of the source.

Key:
[1] = test system: blood-brain barrier (BBB); assay: Reversibility of effect of M 3/14 on BBB permeability (Evan's Blue absorbance of brain extract); format: in vivo, rat (male Sprague-Dawley); conditions: for Quantity EB: 620 nm, per gram wet weight
Protocol: The experiments were carried out on male Sprague-Dawley rats weighing 250-320 gr. They were anesthetized with Rampun-Imalgen. The right common carotid artery was exposed.
The test compounds were dissolved in 0.1M phosphate buffered physiological saline (pH=7.4) at the following test concentrations: 1.6; 8; 20; 40; 200 and 1000 μg/ml. […] The resulting pH of the test solutions was in the range of 8.0 to 8.5, and contols for the pH effect were performed up to pH 9.
The test compound was infused into the right common carotid artery at a rate of 6 ml/min. for 30 s. The control rats were infused with buffer. Evan's Blue (EB) solution at a concentration of […] (2 g Evan's Blue, 0.9 g NaCl in 100 ml water) was injected intravenously 50 minutes prior to the termination of the experiment.
At the end of the experimental time period the animals were perfused with 100 ml of saline solution through the heart and decapitated. The degree of BBB opening, in terms of extravasation of Evan's Blue albumin, was graded on the basis of visual assessment of the degree of staining of the brain ato the method of Rapoport et al. (Rapoport et al., 1980, Amer. J. Physiol. 258, 421-431), and the results are presented in Tables 1 and 2.
A second set of experiments was designed to determine whether the BBB disruption is reversible or irreversible after M 3/14 injection. The extravasation of Evan's Blue-albumin was evaluated at different time points between 3 h and 72 h after M 3/14 injection in concentrations of 8 and 20 μg/ml.
The experiment was conducted on an average of three individual animals per dose per time point. The brains were removed and extracted in dimethylformamide for […]. at room temp. The extract was centrifuged and the supernatant collected and measured for absorbance at 620 nm. The results are presented per gram wet weight of the tissue.

rat brain = assay: Water concentration in the rat brain after intra-arterial administration (cerebral edema); format: in vivo; conditions: 20 μg/ml, 24 h
Protocol: The rats were treated by intraarterial infusion of M 3/14 20 μg/ml or phosphate buffered saline as control. After 24 hours the rats were decapitated, the brain was removed and dried at 110° C. until constant weight was achieved (normally three days). The percent water was calculated by the following equation:
% water=(wet sample weight-dry sample weight)×100/(wet sample weight)
This procedure is according to Karpiak and Mahadik (1984, J. Neurosci. Res. 12, 485-492).

rats = conditions: rat, in vivo
rodent brains = assay: Neurotoxicity by histopathology on fixed sectioned rodent brains; format: in vivo, rat; conditions: 20 or 200 μg/ml via internal carotid artery, 3 or 72 hr post infusion
Protocol: Potential neurotoxicity after treatment with M 3,14 was assessed by means of histopathology on fixed sectioned rodent brains.
Nine rodent brains were fixed in 10% neutral buffered formalin. These brains were obtained from rats infused with either buffer, 20 μg/ml, or 200 μg/ml M3,14 via the left internal carotid artery. The experiment was terminated and the samples collected either 3 or 72 hr. post infusion. Specimen and group identification were as follows:
control: 3 hr (2), 72 hr (1);
Upon receipt, coronal sections were prepared through the forebrain, midbrain and hindbrain. The right-left orientation was identified by placing a small cut in the cortex on the right side of the section. The sections were embedded as a single block, processed routinely in paraffin, sectioned at five microns and stained with hematoxylin and eosin. Sections were evaluated qualitatively.

[2] = test system: bovine brain capillary endothelial cells in co-culture with astrocytes; assay: Determination of lactate dehydrogenase (LDH) in the medium of endothelial cells in coculture; format: cell-based
Protocol: In the same experiments, lactate dehydrogenase was assayed in the medium in order to check the toxicity. This cytoplasmic enzyme is not able to cross the cellular membrane except if the membrane integrity is destroyed. An increase in the release of Lactate Dehydrogenase (LDH) indicates a breakdown of the cellular membrane, leading to a cellular death. In other words, the LDH determination in the medium allows an assessment of cell viability. […]

[3] = test system: bovine brain capillary endothelial cells in co-culture with astrocytes; assay: Transcellular permeability (albumin-FITC clearance), in vitro coculture model of the BBB; format: cell-based; conditions: 0.24 mg/ml
Protocol: 1 hr incubation with the test material and five different concentrations: 0.04; 0.08; 0.16; 0.24; 0.32 mg/ml corresponding to 0.125; 0.25; 0.5; 0.75; 1×10^-3 M, were chosen for this experiment.
Stock solution of DP-BFA was added directly to the coculture medium (upper compartment) in order to obtain a dilution of 1:40.
Permeability studies was carried out on the monolayer of endothelial cells using a transcellular tracer: albumin-FITC (fluorescein isothiocyanate), MW=66500. There is no albumin receptor on endothelial cells. Albumin crossed the monolayer by a non-specific transport.
To obtain a concentration-dependent transport parameter, the clearance principle was used like sucrose or inulin (see paragraph 2.2.).
Albumin-FITC was used on endothelial cells at the concentration of 100 μg/ml in Ringer-Hepes 0.4% albumin.
The fluorescence of each sample was determined at λexcitation of 495 and λemission of 525 using a fluorescence spectrophotometer F-2000 (Hitachi).
In that case, the results are presented as clearance (μl) in function of time (min) and clearance at 180 minutes for each condition.

[4] = test system: ipsilateral hemisphere of the brain; assay: Methotrexate content of brains of rats pretreated with M3,14 (DP-BFA); format: in vivo, rat; conditions: intra-arterial pre-treatment, carotid artery

In the case of CCCCCCCCCCCCCCC(CCC)C(=O)O (stereo not drawn) [M 3/14, 2-propylhexadecanoic acid], the “Quantity EB” value ([1]; 8 μg/ml, 3 h) is reported as 0.087 absorbance units, the “Quantity EB” value ([1]; 8 μg/ml, 24 h) is reported as 0.074 absorbance units and the “Quantity EB” value ([1]; 20 μg/ml, 3 h) is reported as 0.129 absorbance units. The “Quantity EB” value ([1]; 20 μg/ml, 24 h) was 0.129 absorbance units, the “Quantity EB” value ([1]; 20 μg/ml, 72 h) was 0.015 absorbance units and the “duration of effect on BBB permeability” value ([1]; depending on the dose used (8 and 20 μg/ml)) was “exceed 24 hours”. The cerebral edema (rat brain) was “no cerebral edema effect”, the “water content of brain, treated vs non treated rats” value (rat brain) was “no significant difference” and the Brain weight (rat brain; intra-arterial) was 1.494 g. The “Brain weight after drying” value (rat brain; intra-arterial) was 0.311 g, the Water (rat brain; intra-arterial) was 79.19% and the “brain edema or general edema” value (rats) was “no brain edema or general edema was observed”. The change of behavior (rats) was “No change of behavior was observed”, the “histopathology (neurotoxicity)” value (rodent brains; listed as M 3,14) was “no treatment related changes observed” and the “histopathology (neurotoxicity)” value (rodent brains; listed as M3,14) was “No treatment related changes were observed”. The LDH release ([2]; 0.16 mg/ml, 24 hrs incubation) was “significant increase in LDH release”, the cytotoxic effect ([2]; 0.16 mg/ml, 24 hrs incubation) was “cytotoxic effect” and the LDH release ([2]; 1 hr incubation, paracellular study) was “no significant increase in LDH release”. For the same compound, the LDH release ([2]; 1 hr incubation, transcellular study) was “No increase in release of LDH”, the cytotoxic effect ([2]; 1 hr incubation, listed as DP-BFA) was “No cytotoxic effect; also recorded: not associated with cytotoxic effects” and the cytotoxic effect ([2]; 24 hrs reversibility study) was “No cytotoxic effect”. The LDH release ([2]; after 1 hr and after 24 hrs reversibility study) was “No increase in release of LDH”, the LDH release ([2]; reversibility kinetic study) was “No increase in release of LDH” and the cytotoxic effect ([2]; reversibility kinetic study) was “No cytotoxic effect”. The non-specific transcellular transport ([3]; 1 hr incubation) was “increase of non-specific transcellular transport”, the activation at 240 µg/mL ([3]; Bos taurus, 1 hour incubation, read-out: increase in permeability of the monolayer for albumin (clearance at 180 minutes)) was 268% and the “penetration of MTX into the ipsilateral hemisphere” value [4] was “significantly increased the penetration of MTX”.
